# Tests used:
# Assay type in all cases: functional
# Cyperus [1] = assay: Pre-emergence herbicidal activity against Cyperus in tomato field assessed as number of weeds at 2.28 kg/ha applied through drip lines/backpack-spray on week 3 to 4 before transplanting measured 7 weeks after treatment (reference value: 3 plants/m2)
# Echinochloa colona [2] = assay: Pre-emergence herbicidal activity against Echinochloa colona in tomato field assessed as number of weeds at 2.28 kg/ha applied through drip lines/backpack-spray on week 3 to 4 before transplanting measured 7 weeks after treatment (reference value: 9 plants/m2)
# Cyperus [3] = assay: Pre-emergence herbicidal activity against Cyperus in tomato field assessed as number of weeds at 2.28 kg/ha applied through drip lines/backpack-spray on week 3 to 4 before transplanting measured 12 weeks after treatment (reference value: 5 plants/m2)
# Poaceae [4] = assay: Pre-emergence herbicidal activity against Poaceae (grass family) in tomato field assessed as number of weeds at 2.28 kg/ha applied through drip lines/backpack-spray on week 3 to 4 before transplanting measured 12 weeks after treatment (reference value: 8 plants/m2)
# Corynandra viscosa [5] = assay: Pre-emergence herbicidal activity against Cleome viscosa in tomato field assessed as number of weeds at 2.28 kg/ha applied through drip lines/backpack-spray on week 3 to 4 before transplanting measured 12 weeks after treatment (reference value: 9 plants/m2)
# Portulaca oleracea [6] = assay: Pre-emergence herbicidal activity against Portulaca oleracea in tomato field assessed as number of weeds at 2.28 kg/ha applied through drip lines/backpack-spray on week 3 to 4 before transplanting measured 12 weeks after treatment (reference value: 9 plants/m2)
# Eleusine indica [7] = assay: Pre-emergence herbicidal activity against Eleusine indica in tomato field assessed as total fruit weight at 2.28 kg/ha applied through drip lines/backpack-spray on week 3 to 4 before transplanting (reference value: 13.7 t/ha); conditions: pooled result: one value given for 8 cell lines, strains, targets or settings
# Portulaca oleracea [8] = assay: Pre-emergence herbicidal activity against Portulaca oleracea in tomato field assessed as number of weeds at 2.28 kg/ha applied through drip lines/backpack-spray on week 3 to 4 before transplanting measured 7 weeks after treatment (reference value: 9 plants/m2)
# Boerhavia erecta [9] = assay: Pre-emergence herbicidal activity against Boerhavia erecta in tomato field assessed as number of weeds at 2.28 kg/ha applied through drip lines/backpack-spray on week 3 to 4 before transplanting measured 12 weeks after treatment (reference value: 9 plants/m2)
# Corynandra viscosa [10] = assay: Pre-emergence herbicidal activity against Cleome viscosa in tomato field assessed as number of weeds at 2.28 kg/ha applied through drip lines/backpack-spray on week 3 to 4 before transplanting measured 7 weeks after treatment (reference value: 9 plants/m2)
# Poaceae [11] = assay: Pre-emergence herbicidal activity against Poaceae (grass family) in tomato field assessed as number of weeds at 2.28 kg/ha applied through drip lines/backpack-spray on week 3 to 4 before transplanting measured 7 weeks after treatment (reference value: 6 plants/m2)
# Amaranthus dubius [12] = assay: Pre-emergence herbicidal activity against Amaranthus dubius in tomato field assessed as number of weeds at 2.28 kg/ha applied through drip lines/backpack-spray on week 3 to 4 before transplanting measured 7 weeks after treatment (reference value: 9 plants/m2)
# Boerhavia erecta [13] = assay: Pre-emergence herbicidal activity against Boerhavia erecta in tomato field assessed as number of weeds at 2.28 kg/ha applied through drip lines/backpack-spray on week 3 to 4 before transplanting measured 7 weeks after treatment (reference value: 9 plants/m2)
# Trianthema [14] = assay: Pre-emergence herbicidal activity against Trianthema spp. in tomato field assessed as number of weeds at 2.28 kg/ha applied through drip lines/backpack-spray on week 3 to 4 before transplanting measured 7 weeks after treatment (reference value: 9 plants/m2)
# Eleusine indica [15] = assay: Pre-emergence herbicidal activity against Eleusine indica in tomato field assessed as number of weeds at 2.28 kg/ha applied through drip lines/backpack-spray on week 3 to 4 before transplanting measured 7 weeks after treatment (reference value: 9 plants/m2)
# Echinochloa colona [16] = assay: Pre-emergence herbicidal activity against Echinochloa colona in tomato field assessed as number of weeds at 2.28 kg/ha applied through drip lines/backpack-spray on week 3 to 4 before transplanting measured 12 weeks after treatment (reference value: 9 plants/m2)
# Digitaria [17] = assay: Pre-emergence herbicidal activity against Digitaria spp. in tomato field assessed as number of weeds at 2.28 kg/ha applied through drip lines/backpack-spray on week 3 to 4 before transplanting measured 7 weeks after treatment (reference value: 9 plants/m2)
# Eleusine indica [18] = assay: Pre-emergence herbicidal activity against Eleusine indica in tomato field assessed as number of extra-large fruits at 2.28 kg/ha applied through drip lines/backpack-spray on week 3 to 4 before transplanting (reference value: 21.3 x 10 '3 ha); conditions: pooled result: one value given for 8 cell lines, strains, targets or settings
# Digitaria [19] = assay: Pre-emergence herbicidal activity against Digitaria spp. in tomato field assessed as number of weeds at 2.28 kg/ha applied through drip lines/backpack-spray on week 3 to 4 before transplanting measured 12 weeks after treatment (reference value: 9 plants/m2)
# Trianthema [20] = assay: Pre-emergence herbicidal activity against Trianthema spp. in tomato field assessed as total number of fruits at 2.28 kg/ha applied through drip lines/backpack-spray on week 3 to 4 before transplanting (reference value: 49.5 x 10 '3 ha); conditions: pooled result: one value given for 8 cell lines, strains, targets or settings
# Trianthema [21] = assay: Pre-emergence herbicidal activity against Trianthema spp. in tomato field assessed as number of weeds at 2.28 kg/ha applied through drip lines/backpack-spray on week 3 to 4 before transplanting measured 12 weeks after treatment (reference value: 9 plants/m2)
# Eleusine indica [22] = assay: Pre-emergence herbicidal activity against Eleusine indica in tomato field assessed as number of weeds at 2.28 kg/ha applied through drip lines/backpack-spray on week 3 to 4 before transplanting measured 12 weeks after treatment (reference value: 9 plants/m2)
# Amaranthus dubius [23] = assay: Pre-emergence herbicidal activity against Amaranthus dubius in tomato field assessed as number of weeds at 2.28 kg/ha applied through drip lines/backpack-spray on week 3 to 4 before transplanting measured 12 weeks after treatment (reference value: 9 plants/m2)
# Amaranthus dubius [24] = assay: Pre-emergence herbicidal activity against Amaranthus dubius in tomato field assessed as extra-large fruit weight at 2.28 kg/ha applied through drip lines/backpack-spray on week 3 to 4 before transplanting (reference value: 7.3 t/ha); conditions: pooled result: one value given for 8 cell lines, strains, targets or settings
structure (smiles),measurement,setting,value
CCN(CC)C(=O)C(C)Oc1cccc2ccccc12 (centres undefined) [NAPROPAMIDE],Activity,Cyperus [1],6 /m2
same,Activity,Echinochloa colona [2],4 /m2
same,Activity,Cyperus [3],9 /m2
same,Activity,Poaceae [4],6 /m2
same,Activity,Corynandra viscosa [5],7 /m2
same,Activity,Portulaca oleracea [6],7 /m2
same,Activity,Eleusine indica [7],16.4 tons/ha
same,Activity,Portulaca oleracea [8],4 /m2
same,Activity,Boerhavia erecta [9],7 /m2
same,Activity,Corynandra viscosa [10],4 /m2
same,Activity,Poaceae [11],1 /m2
same,Activity,Amaranthus dubius [12],4 /m2
same,Activity,Boerhavia erecta [13],4 /m2
same,Activity,Trianthema [14],4 /m2
same,Activity,Eleusine indica [15],4 /m2
same,Activity,Echinochloa colona [16],7 /m2
same,Activity,Digitaria [17],4 /m2
same,fruit count,Eleusine indica [18],26.3 10^3 fruits/ha
same,Activity,Digitaria [19],7 /m2
same,Activity,Trianthema [20],58.3 10^3 fruits/ha
same,Activity,Trianthema [21],7 /m2
same,Activity,Eleusine indica [22],7 /m2
same,Activity,Amaranthus dubius [23],7 /m2
same,Activity,Amaranthus dubius [24],9.1 tons/ha
